Measured values as given in patent US11655235B2, “Pyrrolidine and piperidine compounds” (YUHAN CORPORATION, priority 2019, dated 2023).
Like-named read-outs stand apart in the source and are kept apart here.

Key:
Format in all cases: biochemical
[1] = biological target: T1, Recombinant human FAP (Homo sapiens, UniProt Q12884); experiment: FAP inhibition, fluorogenic substrate Z-Gly-Pro-AMC
T1 construct: purchased R&D systems
T1 sequence (Q12884 1-760): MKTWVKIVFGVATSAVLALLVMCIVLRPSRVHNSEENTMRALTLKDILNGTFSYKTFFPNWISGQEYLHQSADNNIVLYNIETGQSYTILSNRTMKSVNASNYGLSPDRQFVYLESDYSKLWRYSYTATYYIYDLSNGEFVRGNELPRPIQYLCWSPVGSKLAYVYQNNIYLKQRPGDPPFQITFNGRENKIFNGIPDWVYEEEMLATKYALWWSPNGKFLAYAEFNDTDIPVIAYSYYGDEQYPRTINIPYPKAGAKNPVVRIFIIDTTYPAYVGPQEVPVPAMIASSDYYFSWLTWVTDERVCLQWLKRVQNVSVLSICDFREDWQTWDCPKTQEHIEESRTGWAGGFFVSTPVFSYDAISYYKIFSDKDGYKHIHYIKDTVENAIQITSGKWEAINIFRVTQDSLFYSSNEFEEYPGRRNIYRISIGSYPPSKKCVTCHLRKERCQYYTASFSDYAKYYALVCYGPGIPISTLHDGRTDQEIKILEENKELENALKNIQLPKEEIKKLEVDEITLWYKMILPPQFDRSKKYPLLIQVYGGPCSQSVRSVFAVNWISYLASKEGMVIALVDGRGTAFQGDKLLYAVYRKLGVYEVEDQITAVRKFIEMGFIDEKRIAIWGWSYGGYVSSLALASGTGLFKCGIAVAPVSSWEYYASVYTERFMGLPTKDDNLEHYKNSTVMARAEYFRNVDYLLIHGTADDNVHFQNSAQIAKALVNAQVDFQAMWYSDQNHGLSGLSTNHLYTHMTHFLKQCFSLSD
Method in brief: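 Eight-point compound dilutions (≤0.1% DMSO) were incubated at 25° C with 10 ng recombinant human FAP in Tris pH 7.5/1 M NaCl/BSA buffer and Z-Gly-Pro-AMC. Inhibition was taken as % drop in fluorescence rate (380/460 nm) against uninhibited control; IC50 came from a four-parameter logistic fit.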

[2] = biological target: DPP4 (Homo sapiens, UniProt P27487); experiment: DPP4 inhibition, fluorogenic substrate H-Gly-Pro-AMC; design: purchased R&D Systems; conditions: 25° C., H-Gly-Pro-AMC substrate
DPP4, sequence (P27487 whole entry): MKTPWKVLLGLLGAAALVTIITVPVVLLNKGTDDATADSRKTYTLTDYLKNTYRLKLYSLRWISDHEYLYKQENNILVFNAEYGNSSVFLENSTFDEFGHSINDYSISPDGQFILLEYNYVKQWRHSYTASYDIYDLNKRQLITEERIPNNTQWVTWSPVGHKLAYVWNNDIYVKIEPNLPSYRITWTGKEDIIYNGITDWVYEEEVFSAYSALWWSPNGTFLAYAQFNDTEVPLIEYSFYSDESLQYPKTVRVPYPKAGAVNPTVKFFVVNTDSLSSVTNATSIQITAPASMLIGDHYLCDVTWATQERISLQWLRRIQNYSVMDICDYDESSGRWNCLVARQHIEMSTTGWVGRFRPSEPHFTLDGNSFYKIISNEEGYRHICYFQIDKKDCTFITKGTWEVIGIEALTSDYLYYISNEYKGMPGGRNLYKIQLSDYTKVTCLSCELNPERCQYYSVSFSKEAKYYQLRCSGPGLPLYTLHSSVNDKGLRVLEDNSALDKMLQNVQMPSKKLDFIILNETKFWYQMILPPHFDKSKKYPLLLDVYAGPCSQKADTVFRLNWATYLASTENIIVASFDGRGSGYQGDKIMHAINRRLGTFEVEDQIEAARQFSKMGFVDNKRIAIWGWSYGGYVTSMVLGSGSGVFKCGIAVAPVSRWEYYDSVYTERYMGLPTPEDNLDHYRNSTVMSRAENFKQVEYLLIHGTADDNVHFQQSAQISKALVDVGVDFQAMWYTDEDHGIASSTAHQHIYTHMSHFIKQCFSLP

[3] = biological target: T2, recombinant human PREP (Homo sapiens, UniProt P48147); experiment: PREP inhibition, fluorogenic substrate Z-Gly-Pro-AMC; conditions: Inhibitory Activity (IC50, nM) PREP
T2 construct: purchased R&D System
T2 sequence (P48147 1-710): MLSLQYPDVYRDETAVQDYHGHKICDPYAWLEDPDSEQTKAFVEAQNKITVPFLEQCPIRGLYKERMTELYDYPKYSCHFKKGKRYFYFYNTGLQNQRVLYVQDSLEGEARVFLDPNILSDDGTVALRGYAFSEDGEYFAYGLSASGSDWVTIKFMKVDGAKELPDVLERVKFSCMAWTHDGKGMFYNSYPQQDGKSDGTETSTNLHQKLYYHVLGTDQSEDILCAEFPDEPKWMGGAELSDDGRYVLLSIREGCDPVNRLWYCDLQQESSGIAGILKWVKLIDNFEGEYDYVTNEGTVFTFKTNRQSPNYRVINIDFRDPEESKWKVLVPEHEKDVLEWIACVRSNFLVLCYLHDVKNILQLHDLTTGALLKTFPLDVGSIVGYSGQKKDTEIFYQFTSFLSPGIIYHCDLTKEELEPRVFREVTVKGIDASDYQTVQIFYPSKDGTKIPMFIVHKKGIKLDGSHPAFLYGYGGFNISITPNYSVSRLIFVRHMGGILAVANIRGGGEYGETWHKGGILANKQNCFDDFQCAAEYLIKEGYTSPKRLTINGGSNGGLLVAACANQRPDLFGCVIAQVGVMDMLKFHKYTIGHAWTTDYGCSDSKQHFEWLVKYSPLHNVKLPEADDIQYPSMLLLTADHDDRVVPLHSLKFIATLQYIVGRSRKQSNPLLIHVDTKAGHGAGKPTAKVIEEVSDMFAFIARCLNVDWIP
Method in brief: (§1)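 Inhibitors are titrated in an 8-point series into the enzyme's assay buffer (DMSO no more than 0.5%). Substrate cleavage at 25 °C is followed by fluorescence, excitation 380 nm and emission 460 nm. IC50 values come from a four-variable logistic model.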

[4] = biological target: T3, recombinant human DPP7 (Homo sapiens, UniProt Q9UHL4); experiment: DPP7 inhibition, fluorogenic substrate Lys-Pro-AMC
T3 construct: purchased R&D Systems
Method in brief: as §1

[5] = biological target: T4, recombinant human DPP8 (Homo sapiens, UniProt Q6V1X1); experiment: DPP8 inhibition, fluorogenic substrate Z-Ala-Pro-AMC
T4 construct: purchased PBS Bioscience
T4 sequence (Q6V1X1 whole entry): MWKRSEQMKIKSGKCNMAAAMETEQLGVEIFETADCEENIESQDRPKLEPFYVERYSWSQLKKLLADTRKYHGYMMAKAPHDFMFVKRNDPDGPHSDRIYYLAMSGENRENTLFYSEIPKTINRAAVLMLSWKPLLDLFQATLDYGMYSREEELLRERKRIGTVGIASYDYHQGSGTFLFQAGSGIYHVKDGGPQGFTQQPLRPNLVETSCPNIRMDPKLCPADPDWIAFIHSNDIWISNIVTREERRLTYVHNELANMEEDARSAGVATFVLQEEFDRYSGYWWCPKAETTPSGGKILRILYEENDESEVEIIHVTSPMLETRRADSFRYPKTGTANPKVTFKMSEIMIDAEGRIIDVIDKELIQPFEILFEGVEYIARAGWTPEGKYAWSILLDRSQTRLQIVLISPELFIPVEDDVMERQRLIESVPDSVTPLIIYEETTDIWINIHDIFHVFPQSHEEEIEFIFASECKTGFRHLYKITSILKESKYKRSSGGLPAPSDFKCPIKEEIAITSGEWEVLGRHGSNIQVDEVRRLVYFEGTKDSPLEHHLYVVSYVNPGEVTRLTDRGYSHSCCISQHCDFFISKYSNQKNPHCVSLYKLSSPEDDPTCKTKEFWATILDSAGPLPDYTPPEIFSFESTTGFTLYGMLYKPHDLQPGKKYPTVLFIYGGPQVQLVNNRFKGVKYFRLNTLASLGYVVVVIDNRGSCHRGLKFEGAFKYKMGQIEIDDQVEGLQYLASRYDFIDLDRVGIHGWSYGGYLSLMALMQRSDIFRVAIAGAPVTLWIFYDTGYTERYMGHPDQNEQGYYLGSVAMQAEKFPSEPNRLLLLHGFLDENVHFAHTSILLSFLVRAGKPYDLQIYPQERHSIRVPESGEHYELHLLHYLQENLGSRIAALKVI
Procedure: The compounds according to the present technology were evaluated in terms of the inhibitory effect on the activity of dipeptidyl peptidases including FAP by using a substrate producing fluorescent substances upon enzymatic decomposition. The test was conducted at 25° C. to get a final reaction volume of 100 μL in a 96 black well plate. […] Briefly, the test compounds were dissolved in dimethyl sulfoxide (DMSO) at a concentration of 20 mM and then subjected to serial dilution, thereby creating an 8 point curve. As for the control group, a 6 point curve created by serial dilution of Talabostat in the same buffer solution was used. Fluorescence intensity was measured using a microplate reader (Flexstation3, Molecular Devices) under the wavelength condition exciting at 380 nm and reading the emission at 460 nm. The inhibitory effect of the test compounds was measured as a decrease (%) in the signal rate as compared to the control group without any inhibitor. Data was fixed to a logistic model with four variables and IC50 value was calculated using GraphPad Prism program. As for recombinant human DPP4 (R&D Systems), 25 mM tris (pH 8.0) buffer as a buffer solution and H-Gly-Pro-AMC (Bachem) as a substrate were used. As for recombinant human DPP7 (R&D Systems), 25 mM MES (pH 6.0) buffer as a buffer solution and Lys-Pro-AMC (Bachem) as a substrate were used. As for recombinant human DPP8 (PBS Bioscience), as a buffer solution, a 10 mM tris (pH 7.4) buffer comprising 10 mM of magnesium chloride and 0.05% of Tween 20, and Z-Ala-Pro-AMC (BPS Bioscience) as a substrate were used. As for recombinant human DPP9 (R&D Systems), a 25 mM tris (pH 8.0) buffer as a buffer solution and H-Gly-Pro-AMC (Bachem) as a substrate were used. As for recombinant human PREP (R&D System), as a buffer solution, a 25 mM tris (pH 7.5) buffer comprising 250 mM sodium chloride and 2.5 mM DTT (Dithiolthreitol), and Z-Gly-Pro-AMC (Bachem) as a substrate were used. The evaluation was made by using 10 ng of DPP4, PDD7, and PREP, 20 ng of DPP8, and 50 ng of DPP9 based on the final reaction. In the evaluation of DPP4, the test compounds were subjected to serial dilution in a buffer under the condition containing up to 0.1% of DMSO. In the evaluation of DPP7, DPP8, DPP9, and PREP, the test compounds were subjected to serial dilution in each buffer under the condition containing up to 0.5% of DMSO.

[6] = biological target: T5, recombinant human DPP9 (Homo sapiens, UniProt Q86TI2); experiment: DPP9 inhibition, fluorogenic substrate H-Gly-Pro-AMC
T5 construct: purchased R&D Systems
T5 sequence (Q86TI2 whole entry): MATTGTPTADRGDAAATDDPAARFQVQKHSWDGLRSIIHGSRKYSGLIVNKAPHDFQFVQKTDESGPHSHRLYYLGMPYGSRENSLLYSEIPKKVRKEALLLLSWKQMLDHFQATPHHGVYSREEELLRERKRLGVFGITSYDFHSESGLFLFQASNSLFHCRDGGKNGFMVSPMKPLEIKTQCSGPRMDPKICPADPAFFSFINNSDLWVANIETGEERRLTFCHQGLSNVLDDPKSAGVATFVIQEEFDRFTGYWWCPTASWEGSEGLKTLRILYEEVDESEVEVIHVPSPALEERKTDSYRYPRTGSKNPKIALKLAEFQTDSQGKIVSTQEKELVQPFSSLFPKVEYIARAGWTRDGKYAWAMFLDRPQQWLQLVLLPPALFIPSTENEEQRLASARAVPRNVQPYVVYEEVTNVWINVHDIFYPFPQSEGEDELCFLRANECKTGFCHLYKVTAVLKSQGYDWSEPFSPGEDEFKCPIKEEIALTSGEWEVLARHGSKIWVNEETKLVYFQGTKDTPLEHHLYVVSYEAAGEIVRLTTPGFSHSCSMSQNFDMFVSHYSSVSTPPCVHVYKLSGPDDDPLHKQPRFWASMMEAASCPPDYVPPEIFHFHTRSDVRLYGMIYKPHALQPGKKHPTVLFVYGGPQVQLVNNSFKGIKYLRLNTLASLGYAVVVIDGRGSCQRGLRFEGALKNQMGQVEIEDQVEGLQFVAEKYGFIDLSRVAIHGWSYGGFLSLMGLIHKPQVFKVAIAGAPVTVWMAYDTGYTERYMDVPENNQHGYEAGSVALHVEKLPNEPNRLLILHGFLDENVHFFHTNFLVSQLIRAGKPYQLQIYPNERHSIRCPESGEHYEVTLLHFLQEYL
Method in brief: as §1

[7] = 25° C., Z-Gly-Pro-AMC substrate
[8] = 25° C., Z-Ala-Pro-AMC substrate
[9] = 25° C., H-Gly-Pro-AMC substrate
[10] = recombinant human FAP, substrate Z-Gly-Pro-AMC

IC50 [1, 7] | IC50 [2] | IC50 [3, 7] | IC50 [4] | IC50 [5, 8] | IC50 [6, 9] | IC50 [1, 10] | IC50 ([3]; recombinant human PREP) | IC50 ([4]; recombinant human DPP7) | IC50 ([5]; recombinant human DPP8) | IC50 ([6]; recombinant human DPP9) | SMILES
1.83 nM | > 1000 nM | > 100000 nM | 46.2 nM | 7890 nM | 5710 nM | – | – | – | – | – | N#C[C@@H]1CC(F)(F)CN1C(=O)CN1CC[C@H](Nc2cnc3ccccc3c2)C1 [Example 6, (S)-4,4-difluoro-1-(2-((S)-3-(quinolin-3-ylamino)pyrrolidin-1-yl)acetyl)pyrrolidine-2-carbonitrile]
0.46 nM | > 1000 nM | > 100000 nM | < 30 nM | 97600 nM | 12800 nM | – | – | – | – | – | N#C[C@@H]1CC(F)(F)CN1C(=O)CN1CC[C@H](Nc2ccnc3ccccc23)C1 [Example 7, (S)-4,4-difluoro-1-(2-((S)-3-(quinolin-4-ylamino)pyrrolidin-1-yl)acetyl)pyrrolidine-2-carbonitrile]
1.1 nM | > 1000 nM | > 100000 nM | < 30 nM | 5790 nM | 488 nM | – | – | – | – | – | N#C[C@@H]1CC(F)(F)CN1C(=O)CN1CC[C@H](Nc2cncc3ccccc23)C1 [Example 8, (S)-4,4-difluoro-1-(2-((S)-3-(isoquinolin-4-ylamino)pyrrolidin-1-yl)acetyl)pyrrolidine-2-carbonitrile]
1.1 nM | > 1000 nM | > 100000 nM | 75.1 nM | 213 nM | 12300 nM | – | – | – | – | – | N#C[C@@H]1CC(F)(F)CN1C(=O)CN1CC[C@H](Nc2cccc3sccc23)C1 [Example 9, (S)-1-(2-((S)-3-(benzo[b]thiophen-4-ylamino)pyrrolidin-1-yl)acetyl)-4,4-difluoropyrrolidine-2-carbonitrile]
3.2 nM | > 1000 nM | > 100000 nM | 75 nM | 143 nM | 9980 nM | – | – | – | – | – | N#C[C@@H]1CC(F)(F)CN1C(=O)CN1CC[C@H](Nc2cccc3ccsc23)C1 [Example 10, (S)-1-(2-((S)-3-(benzo[b]thiophen-7-ylamino)pyrrolidin-1-yl)acetyl)-4,4-difluoropyrrolidine-2-carbonitrile]
1.3 nM | > 1000 nM | > 100000 nM | 95.6 nM | 228 nM | 17100 nM | – | – | – | – | – | N#C[C@@H]1CC(F)(F)CN1C(=O)CN1CC[C@H](Nc2cccc3ccoc23)C1 [Example 11, (S)-1-(2-((S)-3-(benzofuran-7-ylamino)pyrrolidin-1-yl)acetyl)-4,4-difluoropyrrolidine-2-carbonitrile]
– | – | – | – | – | – | 5.2 nM | 2610 nM | 2340 nM | ≥ 100000 nM | 14900 nM | N#C[C@@H]1CCCN1C(=O)CN1CC[C@@H](Nc2ccc3ncccc3c2)C1 [Example 162, (2S)-1-[2-[(3R)-3-(6-quinolylamino)pyrrolidin-1-yl]acetyl]pyrrolidine-2-carbonitrile]
– | – | – | – | – | – | 2.3 nM | 3970 nM | 1150 nM | ≥ 100000 nM | 7550 nM | N#C[C@@H]1C[C@H](F)CN1C(=O)CN1CC[C@@H](Nc2cnc3ccccc3c2)C1 [Example 165, (2S,4S)-4-fluoro-1-[2-[(3R)-3-(3-quinolylamino)pyrrolidin-1-yl]acetyl]pyrrolidine-2-carbonitrile]
– | – | – | – | – | – | 2.1 nM | 769 nM | 958 nM | 6160 nM | 1830 nM | N#C[C@@H]1C[C@H](F)CN1C(=O)CN1CC[C@@H](Nc2cccc3ncccc23)C1 [Example 166, (2S,4S)-4-fluoro-1-[2-[(3R)-3-(5-quinolylamino)pyrrolidin-1-yl]acetyl]pyrrolidine-2-carbonitrile]
– | – | – | – | – | – | 1.4 nM | 5860 nM | 2040 nM | 6280 nM | 2560 nM | N#C[C@@H]1C[C@H](F)CN1C(=O)CN1CC[C@@H](Nc2ccc3ncccc3c2)C1 [Example 167, (2S,4S)-4-fluoro-1-[2-[(3R)-3-(6-quinolylamino)pyrrolidin-1-yl]acetyl]pyrrolidine-2-carbonitrile]
– | – | – | – | – | – | 3.5 nM | 7980 nM | 302 nM | 14000 nM | 2700 nM | N#C[C@@H]1C[C@H](F)CN1C(=O)CN1CC[C@@H](Nc2ccnc3ccccc23)C1 [Example 170, (2S,4S)-4-fluoro-1-[2-[(3R)-3-(4-quinolylamino)pyrrolidin-1-yl]acetyl]pyrrolidine-2-carbonitrile]
– | – | – | – | – | – | 1.9 nM | 16400 nM | 1340 nM | ≥ 100000 nM | 7350 nM | N#C[C@@H]1C[C@H](F)CN1C(=O)CN1CCC(Nc2cncc3ccncc23)CC1 [Example 360, (2S,4S)-4-fluoro-1-[2-[4-(2,6-naphthyridin-4-ylamino)-1-piperidyl]acetyl]pyrrolidine-2-carbonitrile]
– | – | – | – | – | – | 2.7 nM | 409 nM | 314 nM | ≥ 100000 nM | 4580 nM | N#C[C@@H]1C[C@H](F)CN1C(=O)CN1CCC(Nc2cncc3c(Cl)cccc23)CC1 [Example 361, (2S,4S)-1-[2-[4-[(8-chloro-4-isoquinolyl)amino]-1-piperidyl]acetyl]-4-fluoro-pyrrolidine-2-carbonitrile]
